We go through one compound from ChEMBL document CHEMBL4376829, “Discovery and biological evaluation of vinylsulfonamide derivatives as highly potent, covalent TEAD autopalmitoylation inhibitors” (Eur J Med Chem, 2019).

Structures are written as SMILES. Calls of active or inactive are those of the source. The calls are words filed in the database; no cut-off is given here.

Experiment [1] has as its target Ribosomal protein S6 kinase alpha-1 (Homo sapiens) (UniProt Q15418). Put plainly: Inhibition of full length recombinant human Rsk1 at 10 uM using KKKNRTLSVA as substrate after 40 mins in presence of [gamma33P]ATP by scintillation counting method relative to control.
Experiment [2] addresses Fibroblast growth factor receptor 2 (Homo sapiens) (UniProt P21802). As to the kind of experiment: Inhibition of recombinant human FGFR2 (456 to 770 residues) at 10 uM using poly(Glu, Tyr) 4:1 as substrate measured after 40 mins in presence of [gamma33P]ATP by scintillation counting method relative to control.
Experiment [3] addresses MAP kinase-interacting serine/threonine-protein kinase 2 (Homo sapiens) (UniProt Q9HBH9). As to the kind of experiment: Inhibition of recombinant full-length human MNK2 at 10 uM using myelin basic protein as substrate measured after 40 mins in presence of [gamma33P]ATP by scintillation counting analysis relative to control.
Experiment [4] concerns the target CDK4/Cyclin D3 (Homo sapiens) (UniProt P11802+P30281). Put plainly: Inhibition of recombinant full-length human CDK4/cyclinD3 at 10 uM using Rb fragment as substrate measured after 40 mins in presence of [gamma33P]ATP by scintillation counting method relative to control. The experiment is classed as protein-complex assay.
Experiment [5] concerns the target Activin receptor type-2A (Homo sapiens) (UniProt P27037). As to the kind of experiment: Inhibition of recombinant human ACTR2 (162 to end residues) at 10 uM using casein as substrate after 120 mins in presence of [gamma33P]ATP by scintillation counting method relative to control.
The target in experiment [6] is T1, Transcriptional enhancer factor TEF-3 (Homo sapiens, UniProt Q15561). Put plainly: Binding affinity to N-terminal His6-tagged human TEAD4-YBD (217 to 434 residues) expressed in Escherichia coli C43 (DE3) cells assessed as change in melting temperature at 1:1 ratio by SYPRO-dye based thermal shift assay.
Experiment [7] addresses NUAK family SNF1-like kinase 2 (Homo sapiens) (UniProt Q9H093). Put plainly: Inhibition of recombinant human full length NUAK2 at 10 uM using KKKVSRSGLYRSPSMPENLNRPR as substrate incubated for 40 mins in presence of [gamma-33P]-ATP by scintillation counting method relative to control.
The target in experiment [8] is Protein kinase C alpha type (Homo sapiens) (UniProt P17252). Put plainly: Inhibition of full-length recombinant human PKCalpha at 10 uM using histone H1 as substrate after 40 mins by in presence of [gamma33P]ATP by scintillation counting method relative to control.
For experiment [9], the target named is Macrophage colony-stimulating factor 1 receptor (Homo sapiens) (UniProt P07333). As to the kind of experiment: Inhibition of recombinant human FMS (538 to end residues) at 10 uM using KKKSPGEYVNIEFG as substrate after 40 mins in presence of [gamma33P]ATP by scintillation counting method relative to control.
The target of experiment [10] is Focal adhesion kinase 1 (Homo sapiens) (UniProt Q05397). Put plainly: Inhibition of recombinant human FAK (411 to 686 residues) at 10 uM using EEEEYEEEEEEYYIIEEEEEEYEEEEEEYYEEEEEEKKKK as substrate measured after 40 mins in presence of [gamma33P]ATP by scintillation counting method relative to control.
For experiment [11], the target named is Serine/threonine-protein kinase N2 (Homo sapiens) (UniProt Q16513). As to the kind of experiment: Inhibition of human PRK2 (501 to end residues) at 10 uM using AKRRRLSSLRA as substrate measured after 40 mins in presence of [gamma33P]ATP by scintillation counting method relative to control.
The target in experiment [12] is 3-phosphoinositide-dependent protein kinase 1 (Homo sapiens) (UniProt O15530). Put plainly: Inhibition of recombinant human PDK1 (52 to end residues) at 10 uM using KTFCGTPEYLAPEVRREPRILSEEEQEMFRDFDYIADWC as substrate measured after 40 mins in presence of [gamma33P]ATP by scintillation counting method relative to control.
Experiment [13] is filed under the species Homo sapiens. Put plainly: Inhibition of TEAD transcriptional activity in human HCT116 cells assessed as reduction in CYR61 expression by qRT-PCR analysis. Type of experiment: cell-based. (In general: Real-time PCR tracks product formation cycle by cycle.)
The target in experiment [14] is Serine/threonine-protein kinase 38-like (Homo sapiens) (UniProt Q9Y2H1). Put plainly: Inhibition of recombinant human NDR2 (83 to end residues) at 10 uM using RSRSRSRSRSRSRSR as substrate measured after 40 mins in presence of [gamma33P]ATP by scintillation counting method relative to control.
For experiment [15], the target named is Serine/threonine-protein kinase TAO1 (Homo sapiens) (UniProt Q7L7X3). As to the kind of experiment: Inhibition of recombinant human TAO1 (1 to 327 residues) at 10 uM using myelin basic protein as substrate measured after 40 mins in presence of [gamma33P]ATP by scintillation counting method relative to control.
The species entered for experiment [16] is Homo sapiens. As to the kind of experiment: Inhibition of human Ros V2262A mutant(1883 to end residues) at 10 uM using KKKSPGEYVNIEFG as substrate measured after 40 mins in presence of [gamma33P]ATP by scintillation counting method relative to control.
Experiment [17] concerns the target Tyrosine-protein kinase Lck (Homo sapiens) (UniProt P06239). As to the kind of experiment: Inhibition of recombinant full-length human LCK at 10 uM using KVEKIGEGTYGVVYK as substrate measured after 40 mins in presence of [gamm33P]ATP by scintillation counting method relative to control.
For experiment [18], the target named is Tyrosine-protein kinase CSK (Homo sapiens) (UniProt P41240). Put plainly: Inhibition of recombinant full length human CSK at 10 uM using poly(Glu,Tyr) as substrate measured after 40 mins in presence of [gamma33P]ATP by scintillation counting method relative to control.
For experiment [19], the target named is T1, Transcriptional enhancer factor TEF-3. As to the kind of experiment: Binding affinity to N-terminal His6-tagged human TEAD4-YBD (217 to 434 residues) expressed in Escherichia coli C43 (DE3) cells assessed as change in melting temperature at 1:2 ratio by SYPRO-dye based thermal shift assay.
The target of experiment [20] is Serine/threonine-protein kinase WNK1 (Homo sapiens) (UniProt Q9H4A3). As to the kind of experiment: Inhibition of recombinant human WNK1 (1 to 491 residues) at 10 uM using myelin basic protein as substrate measured after 120 mins in presence of [gamm33P]ATP by scintillation counting method relative to control.
Experiment [21] concerns the target T1, Transcriptional enhancer factor TEF-3. As to the kind of experiment: Binding affinity to TEAD4 in human HCT116 cells assessed as increase in soluble form of TEAD4 level at 50 uM preincubated for 4 hrs followed by heating at 51.6 to 64.4 degC for 3 mins by immunoblot-based […]. Type of experiment: cell-based. For orientation: Immunoblotting shows a protein as a band on a membrane.

Experiment [22] concerns the target Casein kinase I isoform delta (Homo sapiens) (UniProt P48730). As to the kind of experiment: Inhibition of recombinant human CK1delta (1 to 294 residues) at 10 uM using KRRRALS(p)VASLPGL as substrate measured after 40 mins in presence of [gamma33P]ATP by scintillation counting method relative to control.
Experiment [23] is filed under the species Homo sapiens. As to the kind of experiment: Inhibition of full-length recombinant human PKA at 10 uM using LRRASLG as substrate after 40 mins by in presence of [gamma33P]ATP by scintillation counting method relative to control.

T1 sequence (Q15561 whole entry, the tested form may be a part): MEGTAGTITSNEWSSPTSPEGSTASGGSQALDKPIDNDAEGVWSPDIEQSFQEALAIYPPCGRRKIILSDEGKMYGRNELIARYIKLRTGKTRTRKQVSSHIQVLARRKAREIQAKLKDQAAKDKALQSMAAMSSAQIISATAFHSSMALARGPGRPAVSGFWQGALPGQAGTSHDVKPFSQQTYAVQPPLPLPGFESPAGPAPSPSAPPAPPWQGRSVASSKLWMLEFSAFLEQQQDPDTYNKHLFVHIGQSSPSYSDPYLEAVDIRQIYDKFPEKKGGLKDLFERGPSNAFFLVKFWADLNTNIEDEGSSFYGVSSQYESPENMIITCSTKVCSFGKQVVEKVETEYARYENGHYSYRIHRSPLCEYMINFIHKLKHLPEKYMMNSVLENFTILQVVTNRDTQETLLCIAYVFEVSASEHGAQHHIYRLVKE
Sequence of Tyrosine-protein kinase CSK (Homo sapiens) (P41240 2-450 limits assumed): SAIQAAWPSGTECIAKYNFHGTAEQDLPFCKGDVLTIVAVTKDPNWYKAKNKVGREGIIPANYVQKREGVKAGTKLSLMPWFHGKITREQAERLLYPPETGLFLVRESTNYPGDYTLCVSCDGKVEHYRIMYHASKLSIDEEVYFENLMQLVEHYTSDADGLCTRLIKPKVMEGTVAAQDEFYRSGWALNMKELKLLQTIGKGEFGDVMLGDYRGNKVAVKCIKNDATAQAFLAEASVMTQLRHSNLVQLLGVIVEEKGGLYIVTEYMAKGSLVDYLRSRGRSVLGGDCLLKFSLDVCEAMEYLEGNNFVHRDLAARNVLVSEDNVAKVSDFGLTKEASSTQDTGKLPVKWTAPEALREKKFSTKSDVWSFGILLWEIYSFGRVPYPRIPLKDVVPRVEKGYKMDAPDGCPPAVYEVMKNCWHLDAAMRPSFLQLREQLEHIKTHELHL
Sequence of Serine/threonine-protein kinase N2 (Homo sapiens) (Q16513 whole entry, looked up): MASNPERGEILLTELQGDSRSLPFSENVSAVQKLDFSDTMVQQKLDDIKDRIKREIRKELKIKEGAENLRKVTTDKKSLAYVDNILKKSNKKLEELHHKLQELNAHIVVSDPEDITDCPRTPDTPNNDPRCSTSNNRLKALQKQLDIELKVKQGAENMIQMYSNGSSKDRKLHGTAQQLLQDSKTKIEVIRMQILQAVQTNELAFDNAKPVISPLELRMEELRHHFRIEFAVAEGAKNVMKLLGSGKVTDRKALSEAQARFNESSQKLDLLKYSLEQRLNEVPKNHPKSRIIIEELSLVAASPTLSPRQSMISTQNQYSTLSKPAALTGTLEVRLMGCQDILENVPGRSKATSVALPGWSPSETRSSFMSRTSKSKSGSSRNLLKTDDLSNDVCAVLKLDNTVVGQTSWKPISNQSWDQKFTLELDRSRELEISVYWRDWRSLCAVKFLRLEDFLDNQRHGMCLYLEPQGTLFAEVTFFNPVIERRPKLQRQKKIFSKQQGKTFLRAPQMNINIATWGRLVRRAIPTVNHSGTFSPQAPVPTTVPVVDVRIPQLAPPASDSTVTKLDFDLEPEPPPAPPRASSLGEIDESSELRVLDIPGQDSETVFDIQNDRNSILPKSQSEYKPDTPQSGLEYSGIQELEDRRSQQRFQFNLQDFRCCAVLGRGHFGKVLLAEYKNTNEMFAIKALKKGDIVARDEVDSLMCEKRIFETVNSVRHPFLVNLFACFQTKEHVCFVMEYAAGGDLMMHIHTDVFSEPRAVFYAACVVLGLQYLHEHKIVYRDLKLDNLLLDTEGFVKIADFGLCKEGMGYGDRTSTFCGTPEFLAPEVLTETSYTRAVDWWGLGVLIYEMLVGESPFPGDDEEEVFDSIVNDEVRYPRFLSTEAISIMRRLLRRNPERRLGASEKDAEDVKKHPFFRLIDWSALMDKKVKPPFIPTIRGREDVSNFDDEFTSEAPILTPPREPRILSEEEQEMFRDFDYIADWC
Sequence of NUAK family SNF1-like kinase 2 (Homo sapiens) (Q9H093 whole entry): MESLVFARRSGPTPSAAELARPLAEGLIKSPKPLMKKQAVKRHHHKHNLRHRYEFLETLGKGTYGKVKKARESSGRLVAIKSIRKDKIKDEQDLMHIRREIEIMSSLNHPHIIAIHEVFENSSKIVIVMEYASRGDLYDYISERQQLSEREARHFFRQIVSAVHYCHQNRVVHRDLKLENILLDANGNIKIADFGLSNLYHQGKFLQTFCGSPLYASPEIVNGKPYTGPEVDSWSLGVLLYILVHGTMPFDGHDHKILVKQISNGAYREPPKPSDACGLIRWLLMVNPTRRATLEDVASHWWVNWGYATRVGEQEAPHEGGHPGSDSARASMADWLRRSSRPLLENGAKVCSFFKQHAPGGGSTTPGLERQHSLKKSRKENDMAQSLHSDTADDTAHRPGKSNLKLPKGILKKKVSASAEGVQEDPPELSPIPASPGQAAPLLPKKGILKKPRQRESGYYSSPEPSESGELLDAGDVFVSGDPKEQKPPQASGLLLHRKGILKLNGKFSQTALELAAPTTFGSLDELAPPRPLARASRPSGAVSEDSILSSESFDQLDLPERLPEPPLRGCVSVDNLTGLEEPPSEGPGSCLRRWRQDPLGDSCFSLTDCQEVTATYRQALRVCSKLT
Sequence of Ribosomal protein S6 kinase alpha-1 (Homo sapiens) (Q15418 whole entry, the tested form may be a part): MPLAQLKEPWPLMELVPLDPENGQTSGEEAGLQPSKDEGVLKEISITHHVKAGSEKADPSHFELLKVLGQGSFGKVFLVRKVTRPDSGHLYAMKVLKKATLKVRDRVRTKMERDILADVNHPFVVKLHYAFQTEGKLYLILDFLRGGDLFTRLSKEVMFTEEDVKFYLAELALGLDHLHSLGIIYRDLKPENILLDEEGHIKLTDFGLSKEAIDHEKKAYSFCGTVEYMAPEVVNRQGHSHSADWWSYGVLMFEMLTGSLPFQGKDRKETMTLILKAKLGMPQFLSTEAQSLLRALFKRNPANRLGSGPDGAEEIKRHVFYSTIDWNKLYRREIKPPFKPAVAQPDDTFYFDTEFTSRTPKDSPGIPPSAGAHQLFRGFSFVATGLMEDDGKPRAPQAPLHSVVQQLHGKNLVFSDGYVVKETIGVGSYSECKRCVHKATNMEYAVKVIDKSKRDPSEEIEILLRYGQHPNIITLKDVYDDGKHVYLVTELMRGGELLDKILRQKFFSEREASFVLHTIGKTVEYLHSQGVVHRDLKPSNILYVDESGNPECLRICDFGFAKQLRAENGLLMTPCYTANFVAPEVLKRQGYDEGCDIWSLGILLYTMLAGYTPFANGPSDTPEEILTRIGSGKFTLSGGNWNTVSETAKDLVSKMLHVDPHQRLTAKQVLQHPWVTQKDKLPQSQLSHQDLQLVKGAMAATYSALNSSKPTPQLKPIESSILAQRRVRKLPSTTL
Sequence of MAP kinase-interacting serine/threonine-protein kinase 2 (Homo sapiens) (Q9HBH9 whole entry, looked up, the tested form may be a part): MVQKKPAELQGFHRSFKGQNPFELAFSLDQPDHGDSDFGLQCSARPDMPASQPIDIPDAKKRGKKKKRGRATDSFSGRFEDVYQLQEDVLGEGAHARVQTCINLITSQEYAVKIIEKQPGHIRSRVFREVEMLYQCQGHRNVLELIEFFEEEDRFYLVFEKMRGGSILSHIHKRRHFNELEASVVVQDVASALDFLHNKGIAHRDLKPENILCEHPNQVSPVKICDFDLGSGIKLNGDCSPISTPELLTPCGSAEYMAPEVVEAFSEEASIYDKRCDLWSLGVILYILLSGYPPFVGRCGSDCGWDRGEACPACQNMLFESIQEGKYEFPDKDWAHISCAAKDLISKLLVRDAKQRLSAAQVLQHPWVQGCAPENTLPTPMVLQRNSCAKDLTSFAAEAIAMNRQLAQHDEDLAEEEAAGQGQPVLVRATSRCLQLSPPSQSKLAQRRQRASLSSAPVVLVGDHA
Sequence of 3-phosphoinositide-dependent protein kinase 1 (Homo sapiens) (O15530 whole entry, looked up): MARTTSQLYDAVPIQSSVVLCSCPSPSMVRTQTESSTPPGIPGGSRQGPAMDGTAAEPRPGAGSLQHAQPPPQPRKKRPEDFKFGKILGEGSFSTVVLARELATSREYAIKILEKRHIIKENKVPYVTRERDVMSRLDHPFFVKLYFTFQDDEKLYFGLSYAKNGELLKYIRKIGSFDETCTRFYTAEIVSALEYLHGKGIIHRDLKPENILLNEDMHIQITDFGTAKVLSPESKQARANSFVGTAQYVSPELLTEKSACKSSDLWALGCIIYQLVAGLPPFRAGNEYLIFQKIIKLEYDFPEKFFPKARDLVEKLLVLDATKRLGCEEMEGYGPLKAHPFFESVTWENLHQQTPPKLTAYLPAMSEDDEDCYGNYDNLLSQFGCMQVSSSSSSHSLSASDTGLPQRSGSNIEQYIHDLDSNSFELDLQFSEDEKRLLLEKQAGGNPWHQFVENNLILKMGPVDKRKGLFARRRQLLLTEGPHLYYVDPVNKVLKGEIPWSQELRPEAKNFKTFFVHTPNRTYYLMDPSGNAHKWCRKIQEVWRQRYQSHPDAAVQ

For `C=CS(=O)(=O)Nc1ccc(Cc2ccc3ccccc3c2)cc1`, the inhibition (commonly the drop in the measured response relative to a control, in per cent) in [1] is 22%; in [2], -4%; in experiment [3], 7%; in experiment [4], 11%; in experiment [5], -5%; in [7], -6%. The inhibition in [8] was 3%; in [9] it was 3%; in experiment [10], -3%; in [11], 4%; in experiment [12], 3%; in the experiment listed under Homo sapiens [13] it was “Dose-dependent effect”. Moreover, the inhibition in [14] is -6%; in [15], -10%; in the experiment listed under Homo sapiens [16] it was -6%; in [17], 6%; in experiment [18], -1%; in experiment [20], -10%. Further, the inhibition was 3% in experiment [22] and 1% in the experiment filed under Homo sapiens [23]. Further, the ΔTm (usually the shift of the melting midpoint relative to a reference) is 7 to 7.2 °C in experiment [6] and 7.4 °C in [19]. Moreover, in [21], the outcome was Active.
